Measured values published in patent publication US8293240B2, “Method of treating drug-resistant cancer” (The Regents of the University of Colorado, priority 2004, dated 2012).

Key:
Type in all cases: cell-based
[1] = test system: drug sensitive L1210 cells; experiment: cell-surface Fas expression by flow cytometry, L1210
Protocol: (§1) Cell Surface Staining. Non-permeabilized cells were stained with antibodies to the cell surface receptors Fas (CD95) (Pharmingen) or with antibodies to uncoupling proteins (anti-UCP2 antibody) (Alpha Diagnostic International). Antibodies for both the isotype control and actual stain were added to the cell suspension, mixed, and then placed on ice for and incubation of 25 minutes in the dark. Subsequently the cells were centrifuged at 300×g for 5 minutes and the supernatant removed. The cells were washed one time with 100 μL of PBS/2.5% FBS and then transferred into flow cyotmetric tubes containing 500 μL of PBS/2.5% FBS for analysis.
(§2) Geometric Mean Fluorescence. When analyzing data on Cell Quest software, a geometric mean value will be given for each histogram plotted. Once the stained sample was plotted against the control (isotype or unstained), geometric mean fluorescence values were obtained for both histogram peaks. The stained control sample value was subtracted from sample to identify the actual fluorescence of the stained sample over that of the control.
(§3) Drug sensitive L1210 cells and drug resistant L1210/DDP cells were cultured with etomoxir for 24 hours (Tx indicates treatment with etomoxir). The level of cell-surface Fas was determined using fluorochrome conjugated anti-Fas antibodies and flow cytometry. The Fas levels are measured relative to a control for staining artifacts. […]

[2] = test system: drug resistant L1210/DDP cells; experiment: cell-surface Fas expression by flow cytometry, L1210/DDP
Protocol: as §1, §2, §3

[3] = test system: human leukemia HL60 cells; experiment: DCFDA staining, HL60; conditions: HL60, 24 hours of incubation, FIG. 14
Protocol: (§4) Flow Cytometry. Cells were harvested, counted, and resuspended at 10^6 cells/100 μl of PBS containing 2.5% fetal calf serum in preparation for flow cytometric analysis. Cells were stained for intracellular H202 using 6-carboxy-2′,7′-dichlorodihydrofluorescein diacetate (DCF-DA, Molecular Probes, Eugene, Oreg.). Briefly, cells were incubated at 37° with 1 mM DCF-DA for 20 minutes, washed twice in PBS containing 2.5% fetal calf serum and analyzed flow cytometrically. Mitochondrial membrane potential was assessed using Mitotracker Red (CM-H2XROS, Molecular Probes, Eugene, Oreg.). The cells were resuspended in PBS containing 2.5% fetal calf serum containing a final concentration of 0.5 micromolar Mitotracker dye. The cells were incubated at 37° for 20 minutes, washed twice in PBS containing 2.5% fetal calf serum and analyzed flow cytometrically. Data were acquired on a Coulter Elite Epics or Excel flow cytometer (Coulter, Hialeah, Fla.) and analyzed with CellQuest software, (Becton Dickinson, San Jose, Calif.). […] Each sample population was classified for cell size (forward scatter) and complexity (side scatter), gated on a population of interest and evaluated using 5,000 cells. […]
The effects of etomoxir on human leukemia HL60 cells was determined. […]

[4] = test system: A-204 human rhabdomyosarcoma cells; experiment: cell surface UCP2 expression on A-204 cells; conditions: A-204, 24, 48, & 72 hours, FIG. 26
Protocol: as §1
A204 human rhabdomyosarcoma cells were cultured at a concentration of 0.5 to 1 million cells per ml. Cells were untreated or treated with etomoxir at concentrations indicated in FIG. 24 for 24, 48, & 72 hours. Cells were harvested and analyzed by flow cytometry. Dot plots are shown in FIG. 24 as functions of live versus dead cells. […] Five thousand cells were assessed for forward scatter (FS), as a function of cell size, versus side scatter (SS), as a function of cellular granularity. […]
Cells were untreated or treated with etomoxir at the concentration indicated in FIG. 26 at the indicated concentration for 24, 48, & 72 hours. Cells were harvested, stained with fluorochrome conjugated with anti-UCP2 antibody and analyzed by flow cytometry.

[5] = test system: human leukemia RU937 cells; experiment: mitochondrial membrane potential (MitoTracker), RU937; conditions: RU937, 24 hours of incubation, FIG. 13
Protocol: as §4
The effects of etomoxir on human leukemia RU937 cells was determined. […]

CCOC(=O)C1(CCCCCCOc2ccc(Cl)cc2)CO1 (stereo not shown) [etomoxir, 2-(6-(4-chlorophenoxy)-hexyl)-oxirane-2-carboxylic acid ethyl ester]
cell-surface Fas expression ([1]; L1210, cultured with etomoxir for 24 hours): significant increases in cell surface Fas | Fas expression, combination with methotrexate ([1]; L1210, etomoxir with methotrexate, FIG. 8): increases the methotrexate-induced increases in Fas | cell-surface Fas expression ([2]; L1210/DDP, cultured with etomoxir for 24 hours): significant increases in cell surface Fas | cell surface Fas, combination with methotrexate ([2]; methotrexate-treated L1210 DDP, FIG. 8): promotes increases in cell surface Fas | reactive oxygen intermediates, DCFDA staining [3]: increases in reactive oxygen intermediates | cell surface UCP2 expression in the live cells [4]: time dependent “fold” increases | mitochondrial membrane potential (MitoTracker) [5]: increased the levels of mitochondrial membrane potential
